Results taken from patent publication US20070043114A1, “Nerve regeneration promoters” (priority 2003, published 2007).

Assays:
[1] = test system: astrocytes derived from cerebral cortex of rats; assay: differentiation test of astrocytes derived from cerebral cortex of rats; format: cell-based, rats of Wistar strain; conditions: for positive cell numbers per visual field stained by an anti-βIII-tubulin antibody: differentiated seven days, no compound-added group 93±10.9
Experimental: Cerebrum was excised from newly-born rats of Wistar strain and, after removal of meninx under a stereoscopic microscope, it was ground with a frost part of a slide glass with frost in an ice-cooled DMEM medium to prepare a suspension. Centrifugal separation was conducted at 100×g for 3 minutes and the precipitate was suspended in a 10% bovine fetal serum-DMEM medium and sown in a 75-cm^2 flask. After two days from the start of culturing, cell purification was conducted. On the 19th day from the start of the culturing, astrocytes were recovered using 0.05% trypsin/EDTA and the cells were suspended again using a differentiation medium (a DMEM/F12 medium (Gibco) containing N2 additive (N2 Plus Supplement; R&D Systems) and 1% fetal bovine serum (manufactured by Dainippon Pharmaceutical). That was sown on a chamber slide and, on the next day, the culturing solution was exchanged to a differentiated medium (a DMEM/F12 medium comprising N2 additive, antibiotic and 1% fetal bovine serum) containing a test compound. After differentiating for seven days, fixation was conducted using 4% paraformaldehyde and the following immunostaining was conducted. With regard to nerve cells prepared by differentiation of astrocytes derived from cerebral cortex of rats, their differentiation stage was confirmed by means of immunostaining. Incidentally, anti-βIII-tubulin antibody and anti-doublecortin antibody were used for confirmation of young nerve cells; anti-MAP2 antibody, anti-NeuN antibody and anti-NSE antibody were used for confirmation of mature nerve cells; and anti-GABA antibody was used for confirmation of functional nerve cells.

sciatic nerve = conditions: mature rat, axon of sciatic nerve cut; Brain Research 975, 229-236 (2003); cited from earlier work
[2] = dog, in vivo, 100 mg/kg
Text: Toxicity of the compound of the present invention is sufficiently low and has been confirmed to be sufficiently safe for using as a medicament.

[3] = test system: four-vein ligated (4VO) rat model; assay: 4VO rat model: BrdU and NeuN double immunostaining, hippocampus CA1 region; format: in vivo, rat of Wistar strain; conditions: 4VO rats, 10 mg/kg oral once daily for 40 days from 8th day after 4VO, n=13
Experimental: (§1) A four-vein ligated (4VO) rat model was prepared by a partially modified method by Prusinery, et al. (J. Cereb. Blood Flow Metab., 16, 973-980 […]). Thus, vertebral arteries on both sides of male rat of Wistar strain were permanently obstructed and, on the next day, whole carotid artery was exposed and was temporally obstructed for 10 minutes using a clip. Rats where no response was noted immediately after obstruction of whole carotid arteries on both sides and forward-facing response disappeared were used for the experiment.
Evaluation of nerve cell regeneration was conducted by preparing brain tissue sample by Nissl staining and counting nerve cell numbers in right and left hippocampus CA1 regions.
Confirmation of the fact that […] nerve cells increased in Example 1-A-2-1 were regenerated nerve cells was conducted by preparing a brain tissue sample immunostained with BrdU and NeuN and counting nerve cell numbers which were positive to double staining in right and left hippocampus CA1 region. […] Nerve cell numbers which were positive to double staining were calculated as number per unit length (mm) using nerve cell layer length of the hippocampus CA1 region and nerve cell numbers which were positive to double staining.

[4] = test system: four-vein ligated (4VO) rat model; assay: 4VO rat model: water maze learning test; format: in vivo, rat of Wistar strain; conditions: 4VO rats; for successful times compared with the control group (χ2 test): fourth session, p<0.05
Experimental: as §1
A four-vein ligated (4VO) rat model was prepared according to a method mentioned in Example 1-A-1 and subjected to the following test.
In the water maze learning test, a black circular pool (manufactured by Neuroscience) of 150 cm diameter and 50 cm height was used. The pool was filled with tap water of about 23° C. to a height of about 30 cm (platform surface was about 1 cm beneath the water surface). The platform (made of colorless and transparent acrylate; circular shape having 10 cm diameter) which was to be a goal was placed in a distance of about 35 cm from the inner wall of the pool. During the test period, positions of things which were hints for recognition of space such as racks, illumination instruments and persons who conducted the experiments were made constant and illumination level was made constant as well.
Rats on the third day after completion of repetitive administrations were allowed to stand at a starting position and the time until they climbed up to the platform (escape latency (seconds)) was measured. Maximum swimming time for climbing up to the platform was made 90 seconds and, when a rat climbed up to the plant form, it was allowed to stand there for about 30 seconds and then returned to a cage. When a rat was unable to climb up to the platform within a measuring time of 90 seconds, the rat was taken out from water, transferred onto the platform, allowed to stand there for about 30 seconds and returned to the cage. Incidentally, the escape latency at that time was counted as 90 seconds. Interval between trials was made about 30 minutes, four trials were conducted a day and they were defined as one session. Such a session was conducted for continued four days and (1) escape latency and (2) successful times (times of being able to reach the platform during four trials) were evaluated.

[5] = test system: four-vein ligated (4VO) rat model; assay: 4VO rat model: histological observation (Nissl-stained specimen), hippocampus CA1 nerve cell numbers; format: in vivo, rat of Wistar strain; conditions: 4VO rats, 1 mg/kg oral
Experimental: as §1
A four-vein ligated (4VO) rat model was prepared according to a method mentioned in Example 1-A-1 and subjected to the following test. […]
With regard to the specimens for histopathological test, three kinds of specimens, i.e. (1) Nissl-stained specimen (a site of 5.7 mm from interaural line), (2) specimen stained with hematoxylin-eosin and (3) unstained specimen (thickness: 10 μm) were prepared for brain tissue sample from one animal. Among them, with regard to the Nissl-stained specimen, right and left hippocampus CA1 nerve cell layer lengths and nerve cell numbers were measured by using Image Analyzer (MCID Elite 7.0 Rev.1.0) and numbers per unit length (mm) were calculated to conduct a histological evaluation.

[6] = test system: nerve stem cells derived from striatum of a rat; assay: differentiation test of stem cells derived from fetal brain of rats; format: cell-based, rat of Wistar strain; conditions: 30 μmol/L
Experimental: Fetus was taken out from a pregnant rat of Wistar strain and striatum was excised from brain of the fetus. Cells were dispersed by means of pipetting and incubated for six to seven days in a growth medium (a DMEM/F12 medium (manufactured by Gibco) containing N2 additive (N2 Plus Supplement; R&D Systems), antibiotics, basic fibroblast growth factor (20 ng/mL bFGF; manufactured by R&D Systems) and epithelial cell growth factor (20 ng/mL EGF; manufactured by R&D Systems). The resulting neurospheres were recovered, cells were dispersed by means of pipetting and culturing was conducted for six to seven days more using a growth medium. Neurospheres which were produced again were recovered and, after cells were dispersed, they were cultured on a chamber slide subjected to a poly-L-ornithine coating. After incubating for 24 hours, exchange to a differentiated medium comprising a test compound (a DMEM/F12 medium comprising N2 additive, antibiotic and 1% fetal bovine serum) was conducted. After differentiating for seven days, fixation was conducted with 4% paraformaldehyde and a immunostaining was conducted using a mouse anti-βIII-tubulin antibody (second antibody: FITC-labeled anti-mouse IgG antibody) which is to be an index for differentiation from nerve stem cells to nerve cells).
For example, when 30 μmol/L of (2R)-2-propyloctanoic acid was used, the cell numbers in the no compound-added group were 8±1.3 (in eight visual fields) while those in the group to which the compound was added were 31±4.6 (in eight visual fields).
With regard to the above nerve cells prepared by differentiation of nerve stem cells derived from striatum of rats, their differentiation stage was confirmed by means of immunostaining. Incidentally, for the confirmation of mature nerve cells, anti-MAP2 antibody was used while, for the confirmation of functional nerve cells, anti-GABA antibody was used.

CCCC(CCC)C(=O)O [2-propylpentanoic acid]
positive cell numbers per visual field stained by an anti-βIII-tubulin antibody ([1]; 300 μmol/L): 174.8±7.8 | axon elongation and recovery of kinetic function (sciatic nerve): the axon is elongated and kinetic function is recovered

CCCCCC[C@@H](CCC)C(=O)O [(2R)-2-propyloctanoic acid]
dead cases [2]: no dead case was noted | cells positive to double staining (anti-BrdU and anti-NeuN) per mm, hippocampus CA1 region [3]: 5.7±1.2 cells/mm | Escape latency ([4]; 1 mg/kg oral, session 1): 68.2 ± 3.5 s | Escape latency ([4]; 1 mg/kg oral, session 2): 61.8 ± 4.4 s | Escape latency ([4]; 1 mg/kg oral, session 3): 52.5 ± 6.9 s | Escape latency ([4]; 1 mg/kg oral, session 4): 46.9 ± 7.6 s | successful times compared with the control group (χ2 test) ([4]; 3 mg/kg oral): significant difference | Escape latency ([4]; 3 mg/kg oral, session 1): 63.2 ± 3.8 s | Escape latency ([4]; 3 mg/kg oral, session 2): 48.7 ± 5.5 s | Escape latency ([4]; 3 mg/kg oral, session 3): 42.8 ± 6.4 s | successful times compared with the control group (χ2 test) ([4]; 10 mg/kg oral): significant difference | Escape latency ([4]; 10 mg/kg oral, session 1): 66.8 ± 3.7 s | Escape latency ([4]; 10 mg/kg oral, session 2): 44.5 ± 4.5 s | Escape latency ([4]; 10 mg/kg oral, session 3): 41.4 ± 5.2 s | Nerve cell density, hippocampus CA1 region [5]: 45.0 ± 5.6 cells/mm | βIII-tubulin-positive (Tuj1+) cell numbers per visual field ([6]; differentiated seven days, eight visual fields, 100 magnifications, no compound-added group 8±1.3): 31±4.6 | positive cell numbers per visual field stained using an anti-GABA antibody ([6]; no compound-added group 19±2.7): 101±9.5 | positive cell numbers per visual field stained using an anti-MAP2 antibody ([6]; no compound-added group 34±0.9): 50±7.4 | positive cell numbers per visual field stained by an anti-βIII-tubulin antibody ([1]; 30 μmol/L): 177±11.8 | positive cell numbers stained by an anti-GABA antibody ([1]; 30 μmol/L, no compound-added group 20±1.0): 60±8.8 | positive cell numbers stained by an anti-MAP2 antibody ([1]; 30 μmol/L, no compound-added group 50±7.4): 104±10.3 | positive cell numbers stained by an anti-doublecortin antibody ([1]; 30 μmol/L, no compound-added group 55±5.7): 168±16.6 | positive cell numbers stained by an anti-NeuN antibody ([1]; 30 μmol/L, no compound-added group 106): 199 | positive cell numbers stained by an anti-NSE antibody ([1]; 30 μmol/L, no compound-added group 108): 166 | positive cell numbers per visual field stained by an anti-βIII-tubulin antibody ([1]; 100 μmol/L): 230±11.0
